Data from ChEMBL document CHEMBL1201862, “PubChem BioAssay data set” (2004).
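Method: 48-hour compound exposure of cells in 96-well plates, five concentrations, linear interpolation of endpoints. GI50 is the concentration that inhibits growth by half.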 Calls of active or inactive are those of the source. No stated cut-off is given here; in the data, active = GI50 up to about 1.1 µM and inactive = higher. Non-standard residues stand in square brackets, D forms with d. Residues, ends and D or L forms follow the SMILES beside them. β3hI = CC[CH](C)[CH](N)CC(=O)O

Columns and labels:
Assay in all cases: NCI-60 cell line screen, 48 h
OVCAR-3 = test system: OVCAR-3
NCI-H226 = test system: NCI-H226
MDA-N = test system: MDA-N
DU-145 = test system: DU-145
SN12C = test system: SN12C
MOLT-4 = test system: MOLT-4
HOP-62 = test system: HOP-62
CAKI-1 = test system: CAKI-1
SK-OV-3 = test system: SK-OV-3
U-251 = test system: U-251
NCI/ADR-RES = test system: NCI/ADR-RES
SF-295 = test system: SF-295
OVCAR-4 = test system: OVCAR-4
HL-60 = test system: HL-60
COLO 205 = test system: COLO 205
Malme-3M = test system: Malme-3M
HCC 2998 = test system: HCC 2998
RXF 393 = test system: RXF 393
SNB-75 = test system: SNB-75

Measured: GI50

CCC(C)C(CC(=O)N1CCCC1C(=O)NC(C(=O)NC(C(=O)NCC(=O)NC(CC(N)=O)C(=O)NC(C(=O)NC(C(=O)NC(CCCCN)C(N)=O)C(C)CC)C(C)CC)C(C)C)C(C)CC)NC(=O)C(N)C(C)CC (stereo not drawn) (H-I[β3hI]PIVGNIIK-NH2; configuration not given here)
inactive: OVCAR-3 > 50 µM | NCI-H226 > 50 µM | MDA-N > 50 µM | DU-145 > 50 µM | SN12C > 50 µM | MOLT-4 > 50 µM | HOP-62 > 50 µM | CAKI-1 > 50 µM | SK-OV-3 > 50 µM | U-251 > 50 µM | NCI/ADR-RES > 50 µM | SF-295 > 50 µM | OVCAR-4 > 50 µM | HL-60 > 50 µM | COLO 205 > 50 µM | Malme-3M > 50 µM

CCOC(=O)c1c2c(n(-c3ccc(C)cc3)c1C)-c1ccccc1C(=O)C2(C(=O)OCC)C(=O)OCC
inactive: OVCAR-3 25.3 µM | NCI-H226 55 µM | HCC 2998 31.4 µM | DU-145 30.4 µM | RXF 393 26.5 µM | SN12C 34.4 µM | MOLT-4 1.71 µM | HOP-62 78.7 µM | CAKI-1 39.9 µM | SNB-75 28.6 µM | SK-OV-3 > 76.6 µM | U-251 70.1 µM | NCI/ADR-RES 33.4 µM | SF-295 37.9 µM | OVCAR-4 30.8 µM | HL-60 6.34 µM | COLO 205 45.3 µM | Malme-3M 30.1 µM

COc1ccc(/C=C2\CCC(CNc3ccc(S(N)(=O)=O)cc3)C2=O)cc1 (stereo not given)
inactive: OVCAR-3 9.04 µM | NCI-H226 > 69.5 µM | HCC 2998 33.3 µM | DU-145 > 53.8 µM | RXF 393 20.4 µM | SN12C 18.6 µM | MOLT-4 7.69 µM | HOP-62 37.8 µM | CAKI-1 3.27 µM | SNB-75 32.1 µM | SK-OV-3 > 100 µM | U-251 19.9 µM | NCI/ADR-RES 31.6 µM | SF-295 > 67.3 µM | OVCAR-4 31.6 µM | HL-60 2.15 µM | COLO 205 16.6 µM | Malme-3M 16 µM

CSc1nc2c(c(=O)n1C)N=C(c1ccc([N+](=O)[O-])cc1)CC(c1ccccc1)N2 (stereo not given)
inactive: OVCAR-3 > 100 µM | NCI-H226 > 100 µM | HCC 2998 > 100 µM | DU-145 > 100 µM | RXF 393 > 100 µM | SN12C > 100 µM | MOLT-4 33 µM | HOP-62 > 100 µM | CAKI-1 > 100 µM | SNB-75 41.2 µM | SK-OV-3 > 100 µM | U-251 > 100 µM | NCI/ADR-RES > 100 µM | SF-295 > 100 µM | OVCAR-4 91.8 µM | HL-60 20.5 µM | COLO 205 > 100 µM | Malme-3M > 100 µM
